Reference: patent publication US4401660A, “Ester derivatives of 5-O-mycaminosyl tylonolide and method of using same” (Eli Lilly and Company, priority 1981, dated 1983)
Like-named read-outs stand apart in the source and are kept apart here.

Legend:
[1] = tested on: Streptococcus Group D X66; test: MIC, standard agar-dilution assay (Table II); type: cell-based; design: unit not given here
Method: (§1) The MIC's in Table II were determined by standard agar-dilution assays. The MIC's in Table III were obtained using a conventional broth-dilution microtiter test.

[2] = tested on: Staphylococcus aureus X400; test: MIC, standard agar-dilution assay (Table II); type: cell-based; design: unit not given here; settings: Staphylococcus aureus X400, methicillin-resistant strain
Method: as §1

[3] = tested on: Staphylococcus aureus V41; test: MIC, standard agar-dilution assay (Table II); type: cell-based; design: unit not given here; settings: Staphylococcus aureus V41, penicillin-resistant strain
Method: as §1

[4] = tested on: Streptococcus pneumoniae Park I; test: MIC, standard agar-dilution assay (Table II); type: cell-based; design: unit not given here
Method: as §1

[5] = tested on: Staphylococcus epidermidis EPI1; test: MIC, standard agar-dilution assay (Table II); type: cell-based; design: unit not given here
Method: as §1

[6] = tested on: Streptococcus Group D 9960; test: MIC, standard agar-dilution assay (Table II); type: cell-based; design: unit not given here
Method: as §1

[7] = tested on: Staphylococcus epidermidis EPI2; test: MIC, standard agar-dilution assay (Table II); type: cell-based; design: unit not given here
Method: as §1

[8] = tested on: Streptococcus pyogenes C203; test: MIC, standard agar-dilution assay (Table II); type: cell-based; design: unit not given here
Method: as §1

[9] = tested on: Staphylococcus aureus X1.1; test: MIC, standard agar-dilution assay (Table II); type: cell-based; design: unit not given here
Method: as §1

[10] = tested on: Staphylococcus aureus S13E; test: MIC, standard agar-dilution assay (Table II); type: cell-based; design: unit not given here
Method: as §1

[11] = tested on: Mycoplasma gallisepticum; test: MIC, broth-dilution microtiter test (Table III); type: cell-based; design: unit not given here
Method: as §1

[12] = tested on: Pasteurella multocida 60A; test: MIC, broth-dilution microtiter test (Table III); type: cell-based; design: unit not given here; settings: avian isolate
Method: as §1

[13] = tested on: Mycoplasma synoviae; test: MIC, broth-dilution microtiter test (Table III); type: cell-based; design: unit not given here
Method: as §1

[14] = tested on: Pasteurella multocida 40G; test: MIC, broth-dilution microtiter test (Table III); type: cell-based; design: unit not given here
Method: as §1

[15] = tested on: Pasteurella haemolytica 22C; test: MIC, broth-dilution microtiter test (Table III); type: cell-based; design: unit not given here
Method: as §1

[16] = tested on: Streptococcus sp. 80; test: MIC, broth-dilution microtiter test (Table III); type: cell-based; design: unit not given here
Method: as §1

[17] = tested on: Pasteurella haemolytica 23C; test: MIC, broth-dilution microtiter test (Table III); type: cell-based; design: unit not given here
Method: as §1

[18] = tested on: Pasteurella haemolytica 41D; test: MIC, broth-dilution microtiter test (Table III); type: cell-based; design: unit not given here
Method: as §1

[19] = tested on: Pasteurella multocida 22A; test: MIC, broth-dilution microtiter test (Table III); type: cell-based; design: unit not given here
Method: as §1

[20] = tested on: Pasteurella multocida 68C; test: MIC, broth-dilution microtiter test (Table III); type: cell-based; design: unit not given here
Method: as §1

[21] = tested on: Staphylococcus aureus; test: MIC, broth-dilution microtiter test (Table III); type: cell-based; design: unit not given here
Method: as §1

[22] = tested on: Mycoplasma hyorhinis; test: MIC, broth-dilution microtiter test (Table III); type: cell-based; design: unit not given here
Method: as §1

[23] = tested on: Pasteurella multocida 17E; test: MIC, broth-dilution microtiter test (Table III); type: cell-based; design: unit not given here; settings: bovine isolate
Method: as §1

[24] = tested on: Pasteurella multocida; test: Treatment of Pasteurella infections in chicks (Table V); type: in vivo, one-day-old chicks; settings: Pasteurella multocida, sc, 4 h; 30 mg/kg by subcutaneous injection one and four hours post challenge; read-out: Deaths in Treated Chicks/Number Treated (converted)
In short: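 Dosing was 30 mg/kg by subcutaneous injection, one and four hours after challenge. Day-old chicks received 0.1 ml of a 10^-3 dilution of a 20-hour tryptose broth culture of avian P. multocida subcutaneously. Nonmedicated infected chicks served as controls, ten per group.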

[25] = tested on: Streptococcus pyogenes C203; test: ED50 in mice with experimental infections (Table IV); type: in vivo; settings: Streptococcus pyogenes, doses given 1 and 4 hours postinfection
Method: The OMT ester derivatives of this invention have shown in vivo antimicrobial activity against experimental bacterial infections caused by gram-positive bacteria. When two doses of test compound were administered to mice with experimental infections, the activity observed was measured as an ED50 value [effective dose in mg/kg to protect 50% of the test animals: see Warren Wick, et al., J. Bacteriol. 81, 233-235 (1961)].
^a mg/kg × 2; doses given 1 and 4 hours postinfection

[26] = tested on: Haemophilus influenzae Holt; test: MIC, standard agar-dilution assay (Table II); type: cell-based; design: unit not given here; settings: ampicillin-sensitive strain
Method: as §1

[27] = tested on: Haemophilus influenzae R252; test: MIC, standard agar-dilution assay (Table II); type: cell-based; design: unit not given here; settings: Haemophilus influenzae R252, ampicillin-resistant strain
Method: as §1

[28] = C203, oral, read-out: ED50, Oral
[29] = C203, sc, subcutaneous, read-out: ED50, Subcutaneous

Compound: CCC1OC(=O)CC(O)C(C)C(OC2OC(C)C(OC(C)=O)C(N(C)C)C2OC(C)=O)C(CC=O)CC(C)C(=O)C=CC(C)=CC1COC(=O)CSc1ccc(Cl)c(Cl)c1 (stereo not shown) [Compound 37, 2',4'-Di-O-acetyl-23-O-[(3,4-dichlorophenylthio)acetyl]-OMT]
- minimal inhibitory concentration (MIC) [1]: 2
- minimal inhibitory concentration (MIC) [2]: 4
- minimal inhibitory concentration (MIC) [3]: 4
- minimal inhibitory concentration (MIC) [4]: 0.5
- minimal inhibitory concentration (MIC) [5]: 2
- minimal inhibitory concentration (MIC) [6]: 2
- minimal inhibitory concentration (MIC) [7]: 4
- minimal inhibitory concentration (MIC) [8]: 0.5
- minimal inhibitory concentration (MIC) [9]: 2
- minimal inhibitory concentration (MIC) [10]: 2
- minimal inhibitory concentration (MIC) [11]: < 0.05
- minimal inhibitory concentration (MIC) [12]: 3.12
- minimal inhibitory concentration (MIC) [13]: 0.78
- minimal inhibitory concentration (MIC) [14]: 3.12
- minimal inhibitory concentration (MIC) [15]: 6.25
- minimal inhibitory concentration (MIC) [16]: < 0.05
- minimal inhibitory concentration (MIC) [17]: 6.25
- minimal inhibitory concentration (MIC) [18]: 12.5
- minimal inhibitory concentration (MIC) [19]: 6.25
- minimal inhibitory concentration (MIC) [20]: 0.78
- minimal inhibitory concentration (MIC) [21]: 0.39
- minimal inhibitory concentration (MIC) [22]: 6.25
- minimal inhibitory concentration (MIC) [23]: 1.56
- mortality at 30 mg/kg [24]: 100%
- ED50 [25, 28]: > 150 mg/kg

Compound: CCC1OC(=O)CC(O)C(C)C(OC2OC(C)C(O)C(N(C)C)C2O)C(CC=O)CC(C)C(=O)C=CC(C)=CC1COC(=O)Cc1cccnc1 (stereo not shown) [Compound 44, 23-O-(3-Pyridylacetyl)-OMT]
- minimal inhibitory concentration (MIC) [1]: 0.125
- minimal inhibitory concentration (MIC) [2]: 0.25
- minimal inhibitory concentration (MIC) [3]: 0.25
- minimal inhibitory concentration (MIC) [4]: 0.03
- minimal inhibitory concentration (MIC) [5]: 0.125
- minimal inhibitory concentration (MIC) [6]: 0.125
- minimal inhibitory concentration (MIC) [7]: 0.125
- minimal inhibitory concentration (MIC) [8]: 0.015
- minimal inhibitory concentration (MIC) [9]: 0.25
- minimal inhibitory concentration (MIC) [10]: 0.25
- minimal inhibitory concentration (MIC) [11]: 0.78
- minimal inhibitory concentration (MIC) [12]: 0.78
- minimal inhibitory concentration (MIC) [13]: < 0.05
- minimal inhibitory concentration (MIC) [14]: 3.12
- minimal inhibitory concentration (MIC) [15]: 3.12
- minimal inhibitory concentration (MIC) [16]: 0.39
- minimal inhibitory concentration (MIC) [17]: 6.25
- minimal inhibitory concentration (MIC) [18]: 6.25
- minimal inhibitory concentration (MIC) [19]: 3.12
- minimal inhibitory concentration (MIC) [20]: 3.12
- minimal inhibitory concentration (MIC) [21]: 0.39
- minimal inhibitory concentration (MIC) [22]: 0.78
- minimal inhibitory concentration (MIC) [23]: 3.12
- mortality at 30 mg/kg [24]: 0%
- ED50 [25, 28]: 150 mg/kg
- ED50 [25, 29]: 13 mg/kg

Compound: CCC1OC(=O)CC(O)C(C)C(OC2OC(C)C(O)C(N(C)C)C2O)C(CC=O)CC(C)C(=O)C=CC(C)=CC1COC(=O)CSc1ccc(Cl)c(Cl)c1 (stereo not shown) [Compound 38, 23-O-[(3,4-Dichlorophenylthio)acetyl]-OMT]
- minimal inhibitory concentration (MIC) [1]: 0.125
- minimal inhibitory concentration (MIC) [2]: 0.25
- minimal inhibitory concentration (MIC) [3]: 0.25
- minimal inhibitory concentration (MIC) [4]: 0.03
- minimal inhibitory concentration (MIC) [5]: 0.25
- minimal inhibitory concentration (MIC) [6]: 0.125
- minimal inhibitory concentration (MIC) [7]: 0.25
- minimal inhibitory concentration (MIC) [8]: 0.06
- minimal inhibitory concentration (MIC) [9]: 0.125
- minimal inhibitory concentration (MIC) [10]: 0.125
- minimal inhibitory concentration (MIC) [11]: < 0.05
- minimal inhibitory concentration (MIC) [12]: 1.56
- minimal inhibitory concentration (MIC) [13]: 0.097
- minimal inhibitory concentration (MIC) [14]: 1.56
- minimal inhibitory concentration (MIC) [15]: 3.12
- minimal inhibitory concentration (MIC) [16]: < 0.05
- minimal inhibitory concentration (MIC) [17]: 6.25
- minimal inhibitory concentration (MIC) [18]: 6.25
- minimal inhibitory concentration (MIC) [19]: 3.12
- minimal inhibitory concentration (MIC) [20]: 1.56
- minimal inhibitory concentration (MIC) [21]: < 0.05
- minimal inhibitory concentration (MIC) [22]: 3.12
- minimal inhibitory concentration (MIC) [23]: 1.56
- mortality at 30 mg/kg [24]: 10%
- ED50 [25, 28]: > 150 mg/kg

Compound: CCC1OC(=O)CC(O)C(C)C(OC2OC(C)C(O)C(N(C)C)C2OC(C)=O)C(CC=O)CC(C)C(=O)C=CC(C)=CC1COC(=O)Cc1ccccc1 (stereo not shown) [Compound 28]
- minimal inhibitory concentration (MIC) [1]: 0.125
- minimal inhibitory concentration (MIC) [26]: 1
- minimal inhibitory concentration (MIC) [2]: 0.25
- minimal inhibitory concentration (MIC) [3]: 0.125
- minimal inhibitory concentration (MIC) [4]: 0.015
- minimal inhibitory concentration (MIC) [5]: 0.125
- minimal inhibitory concentration (MIC) [6]: 0.125
- minimal inhibitory concentration (MIC) [7]: 0.125
- minimal inhibitory concentration (MIC) [8]: 0.125
- minimal inhibitory concentration (MIC) [9]: 0.125
- minimal inhibitory concentration (MIC) [10]: 0.125
- minimal inhibitory concentration (MIC) [27]: 1
- minimal inhibitory concentration (MIC) [11]: < 0.05
- minimal inhibitory concentration (MIC) [12]: 0.78
- minimal inhibitory concentration (MIC) [13]: < 0.05
- minimal inhibitory concentration (MIC) [15]: 6.25
- minimal inhibitory concentration (MIC) [16]: < 0.05
- minimal inhibitory concentration (MIC) [17]: 3.12
- minimal inhibitory concentration (MIC) [18]: 3.12
- minimal inhibitory concentration (MIC) [19]: 3.12
- minimal inhibitory concentration (MIC) [20]: 0.78
- minimal inhibitory concentration (MIC) [21]: 0.195
- minimal inhibitory concentration (MIC) [22]: 1.56
- minimal inhibitory concentration (MIC) [23]: 1.56
- mortality at 30 mg/kg [24]: 80%
- ED50 [25, 28]: 155 mg/kg
- ED50 [25, 29]: 6.5 mg/kg

Compound: CCC1OC(=O)CC(O)C(C)C(OC2OC(C)C(O)C(N(C)C)C2O)C(CC=O)CC(C)C(=O)C=CC(C)=CC1COC(=O)c1ccccc1 (stereo not shown) [Compound 26, 23-O-Benzoyl-OMT]
- minimal inhibitory concentration (MIC) [1]: 0.25
- minimal inhibitory concentration (MIC) [26]: 2
- minimal inhibitory concentration (MIC) [2]: 0.5
- minimal inhibitory concentration (MIC) [3]: 0.25
- minimal inhibitory concentration (MIC) [4]: 0.06
- minimal inhibitory concentration (MIC) [5]: 0.25
- minimal inhibitory concentration (MIC) [6]: 0.25
- minimal inhibitory concentration (MIC) [7]: 0.5
- minimal inhibitory concentration (MIC) [8]: 0.125
- minimal inhibitory concentration (MIC) [9]: 0.25
- minimal inhibitory concentration (MIC) [10]: 0.25
- minimal inhibitory concentration (MIC) [27]: 2
- minimal inhibitory concentration (MIC) [11]: < 0.05
- minimal inhibitory concentration (MIC) [12]: 0.78
- minimal inhibitory concentration (MIC) [13]: 0.39
- minimal inhibitory concentration (MIC) [15]: 6.25
- minimal inhibitory concentration (MIC) [16]: 0.195
- minimal inhibitory concentration (MIC) [17]: 3.12
- minimal inhibitory concentration (MIC) [18]: 6.25
- minimal inhibitory concentration (MIC) [19]: 1.56
- minimal inhibitory concentration (MIC) [20]: 1.56
- minimal inhibitory concentration (MIC) [21]: 0.39
- minimal inhibitory concentration (MIC) [22]: 0.39
- minimal inhibitory concentration (MIC) [23]: 1.56
- mortality at 30 mg/kg [24]: 100%
- ED50 [25, 28]: 136 mg/kg
- ED50 [25, 29]: 10.6 mg/kg
